Source: patent US20250230193A1, “CYCLIC COMPOUND HAVING SELECTIVE KRAS INHIBITORY EFFECT ON HRAS AND NRAS” (CHUGAI SEIYAKU KABUSHIKI KAISHA, priority 2022, published 2025)

Experiments:
[1] = tested on: human lung cancer strain NCI-H441; experiment: cells; details: NCI-H441, 96 h, read-out: NCI-H441 IC50 (nM)
[2] = target: GDP-bound NRAS wild-type protein (Homo sapiens, UniProt P01111); experiment: Binding to NRAS by surface plasmon resonance (SPR), Single Cycle Kinetics; details: SPR; KD ratio class
GDP-bound NRAS wild-type protein, sequence (P01111 whole entry): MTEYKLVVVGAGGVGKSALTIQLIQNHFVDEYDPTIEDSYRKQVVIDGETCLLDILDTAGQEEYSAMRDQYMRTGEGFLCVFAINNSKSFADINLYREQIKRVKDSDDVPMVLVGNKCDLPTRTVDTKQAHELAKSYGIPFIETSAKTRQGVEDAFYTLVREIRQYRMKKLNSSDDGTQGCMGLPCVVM

[3] = target: GDP-bound HRAS wild-type protein (Homo sapiens, UniProt P01112); experiment: Binding to HRAS by surface plasmon resonance (SPR), Single Cycle Kinetics; details: SPR; KD ratio class
GDP-bound HRAS wild-type protein, sequence (P01112 whole entry): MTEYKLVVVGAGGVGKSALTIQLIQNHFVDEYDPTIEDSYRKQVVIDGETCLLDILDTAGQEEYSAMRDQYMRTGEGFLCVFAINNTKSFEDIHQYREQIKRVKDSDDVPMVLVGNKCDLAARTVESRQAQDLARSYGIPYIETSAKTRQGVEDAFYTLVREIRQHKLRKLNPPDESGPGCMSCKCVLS

| SMILES | IC50 [1] [nM] | NRAS/KRAS (ratio of KD value for GDP-bound NRAS wild-type protein to KD value for KRAS) [2] | HRAS/KRAS (ratio of KD value for GDP-bound HRAS wild-type protein to KD value for KRAS) [3] |
| --- | --- | --- | --- |
| CCO[C@@H]1C[C@H]2C(=O)NC3(CCC3)C(=O)N(C)[C@@H](C(CC)CC)C(=O)N(C)[C@H](C(=O)N(C)C)CC(=O)N(C)[C@@H](CC3CCCC3)C(=O)N[C@@H]([C@@H](C)CC)C(=O)N(C)CC(=O)N(C)[C@H]3C/C=C\CCN(C3=O)[C@@H](CC3CCCCC3)C(=O)N(C)CC(=O)N[C@@H](CCc3cc(F)c(C(F)(F)F)c(F)c3)C(=O)N2C1 [PP1430] | 70.4 | A (a compound having 10 or more and less than 20 is denoted as A) | A (a compound having 10 or more and less than 20 is denoted as A) |
| CCO[C@@H]1C[C@H]2C(=O)NC3(CCC3)C(=O)N(C)[C@@H](C(CC)CC)C(=O)N(C)[C@H](C(=O)N(C)C)CC(=O)N(C)[C@@H](CC3CCCC3)C(=O)N[C@@H]([C@@H](C)CC)C(=O)N(C)CC(=O)N(C)[C@H]3C/C=C\CCN(C3=O)[C@@H](CC3CCC(F)(F)CC3)C(=O)N(C)CC(=O)N[C@@H](CCc3cc(F)c(C(F)(F)F)c(F)c3)C(=O)N2C1 [PP1431] | 41.2 | AA (a compound having 20 or more is denoted as AA) | A (a compound having 10 or more and less than 20 is denoted as A) |
| CCO[C@@H]1C[C@H]2C(=O)NC3(CCC3)C(=O)N(C)[C@@H](C(CC)CC)C(=O)N(C)[C@H](C(=O)N(C)C)CC(=O)N(C)[C@@H](CC(C)C)C(=O)N[C@@H]([C@@H](C)CC)C(=O)N(C)CC(=O)N(C)[C@H]3C/C=C\CCN(C3=O)[C@@H](CC3CCCCC3)C(=O)N(C)CC(=O)N[C@@H](CCc3cc(F)c(C(F)(F)F)c(F)c3)C(=O)N2C1 [PP1432] | 51.3 | AA (a compound having 20 or more is denoted as AA) | A (a compound having 10 or more and less than 20 is denoted as A) |
| CCO[C@@H]1C[C@H]2C(=O)NC3(CCC3)C(=O)N(C)[C@@H](C(CC)CC)C(=O)N(C)[C@H](C(=O)N(C)C)CC(=O)N(C)[C@@H](CC(C)C)C(=O)N[C@@H]([C@@H](C)CC)C(=O)N(C)CC(=O)N(C)[C@H]3C/C=C\CCN(C3=O)[C@@H](CC3CCC(F)(F)CC3)C(=O)N(C)CC(=O)N[C@@H](CCc3cc(F)c(C(F)(F)F)c(F)c3)C(=O)N2C1 [PP1433] | 44.4 | AA (a compound having 20 or more is denoted as AA) | A (a compound having 10 or more and less than 20 is denoted as A) |
| CCO[C@@H]1C[C@H]2C(=O)NC3(CCC3)C(=O)N(C)[C@@H](C(CC)CC)C(=O)N(C)[C@H](C(=O)N3CCCC3)CC(=O)N(C)[C@@H](C)C(=O)N[C@@H]([C@@H](C)CC)C(=O)N(C)CC(=O)N(C)[C@H]3C/C=C\CCN(C3=O)[C@@H](CC3CCCCC3)C(=O)N(C)CC(=O)N[C@@H](CCc3cc(F)c(C(F)(F)F)c(F)c3)C(=O)N2C1 [PP1434] | 112 | A (a compound having 10 or more and less than 20 is denoted as A) | A (a compound having 10 or more and less than 20 is denoted as A) |
| CCO[C@@H]1C[C@H]2C(=O)NC3(CCCC3)C(=O)N(C)[C@@H](C(CC)CC)C(=O)N(C)[C@H](C(=O)N3CCCC3)CC(=O)N(C)[C@@H](C)C(=O)N[C@@H]([C@@H](C)CC)C(=O)N(C)CC(=O)N(C)[C@H]3C/C=C\CCN(C3=O)[C@@H](CC3CCCCC3)C(=O)N(C)CC(=O)N[C@@H](CCc3cc(F)c(C(F)(F)F)c(F)c3)C(=O)N2C1 [PP1435] | 178 | A (a compound having 10 or more and less than 20 is denoted as A) | A (a compound having 10 or more and less than 20 is denoted as A) |
| CCO[C@@H]1C[C@H]2C(=O)NC3(CCC3)C(=O)N(C)[C@@H](C(CC)CC)C(=O)N(C)[C@H](C(=O)N3CCCC3)CC(=O)N(C)[C@@H](C)C(=O)N[C@@H]([C@@H](C)CC)C(=O)N(C)CC(=O)N(C)[C@H]3C/C=C\CCN(C3=O)[C@@H](CC3CCC(F)(F)CC3)C(=O)N(C)CC(=O)N[C@@H](CCc3cc(F)c(C(F)(F)F)c(F)c3)C(=O)N2C1 [PP1436] | 47.4 | AA (a compound having 20 or more is denoted as AA) | A (a compound having 10 or more and less than 20 is denoted as A) |
| CCO[C@@H]1C[C@H]2C(=O)NC3(CCCC3)C(=O)N(C)[C@@H](C(CC)CC)C(=O)N(C)[C@H](C(=O)N3CCCC3)CC(=O)N(C)[C@@H](C)C(=O)N[C@@H]([C@@H](C)CC)C(=O)N(C)CC(=O)N(C)[C@H]3C/C=C\CCN(C3=O)[C@@H](CC3CCC(F)(F)CC3)C(=O)N(C)CC(=O)N[C@@H](CCc3cc(F)c(C(F)(F)F)c(F)c3)C(=O)N2C1 [PP1437] | 220 | A (a compound having 10 or more and less than 20 is denoted as A) | A (a compound having 10 or more and less than 20 is denoted as A) |
| CCO[C@@H]1C[C@H]2C(=O)NC3(CCC3)C(=O)N(C)[C@@H](C(CC)CC)C(=O)N(C)[C@H](C(=O)N3CCCC3)CC(=O)N(C)[C@@H](COC)C(=O)N[C@@H]([C@@H](C)CC)C(=O)N(C)CC(=O)N(C)[C@H]3C/C=C\CCN(C3=O)[C@@H](CC3CCCCC3)C(=O)N(C)CC(=O)N[C@@H](CCc3cc(F)c(C(F)(F)F)c(F)c3)C(=O)N2C1 [PP1438] | 89.4 | AA (a compound having 20 or more is denoted as AA) | A (a compound having 10 or more and less than 20 is denoted as A) |
| CCO[C@@H]1C[C@H]2C(=O)NC3(CCCC3)C(=O)N(C)[C@@H](C(CC)CC)C(=O)N(C)[C@H](C(=O)N3CCCC3)CC(=O)N(C)[C@@H](COC)C(=O)N[C@@H]([C@@H](C)CC)C(=O)N(C)CC(=O)N(C)[C@H]3C/C=C\CCN(C3=O)[C@@H](CC3CCCCC3)C(=O)N(C)CC(=O)N[C@@H](CCc3cc(F)c(C(F)(F)F)c(F)c3)C(=O)N2C1 [PP1439] | 87.3 | AA (a compound having 20 or more is denoted as AA) | A (a compound having 10 or more and less than 20 is denoted as A) |
| CCO[C@@H]1C[C@H]2C(=O)NC3(CCC3)C(=O)N(C)[C@@H](C(CC)CC)C(=O)N(C)[C@H](C(=O)N3CCCC3)CC(=O)N(C)[C@@H](COC)C(=O)N[C@@H]([C@@H](C)CC)C(=O)N(C)CC(=O)N(C)[C@H]3C/C=C\CCN(C3=O)[C@@H](CC3CCC(F)(F)CC3)C(=O)N(C)CC(=O)N[C@@H](CCc3cc(F)c(C(F)(F)F)c(F)c3)C(=O)N2C1 [PP1440] | 69.7 | AA (a compound having 20 or more is denoted as AA) | A (a compound having 10 or more and less than 20 is denoted as A) |
| CCO[C@@H]1C[C@H]2C(=O)NC3(CCCC3)C(=O)N(C)[C@@H](C(CC)CC)C(=O)N(C)[C@H](C(=O)N3CCCC3)CC(=O)N(C)[C@@H](COC)C(=O)N[C@@H]([C@@H](C)CC)C(=O)N(C)CC(=O)N(C)[C@H]3C/C=C\CCN(C3=O)[C@@H](CC3CCC(F)(F)CC3)C(=O)N(C)CC(=O)N[C@@H](CCc3cc(F)c(C(F)(F)F)c(F)c3)C(=O)N2C1 [PP1441] | 87.6 | A (a compound having 10 or more and less than 20 is denoted as A) | A (a compound having 10 or more and less than 20 is denoted as A) |
| CCO[C@@H]1C[C@H]2C(=O)NC3(CCC3)C(=O)N(C)[C@@H](C3CCCC3)C(=O)N(C)[C@H](C(=O)N3CCC3)CC(=O)N(C)[C@@H](CC)C(=O)N[C@@H]([C@@H](C)CC)C(=O)N(C)CC(=O)N(C)[C@H]3C/C=C\CCN(C3=O)[C@@H](CC3CCC(F)(F)CC3)C(=O)N(C)CC(=O)N[C@@H](CCc3cc(F)c(C(F)(F)F)c(F)c3)C(=O)N2C1 [PP1444] | 103 | A (a compound having 10 or more and less than 20 is denoted as A) | A (a compound having 10 or more and less than 20 is denoted as A) |
| CCO[C@@H]1C[C@H]2C(=O)NC3(CCC3)C(=O)N(C)[C@@H](C3CCCC3)C(=O)N(C)[C@H](C(=O)N3CCC3)CC(=O)N(C)[C@@H](CC)C(=O)N[C@@H]([C@@H](C)CC)C(=O)N(C)CC(=O)N(C)[C@H]3C/C=C\CCN(C3=O)[C@@H](CC3CCCCC3)C(=O)N(C)CC(=O)N[C@@H](CCc3cc(F)c(C(F)(F)F)c(F)c3)C(=O)N2C1 [PP1445] | 92.8 | A (a compound having 10 or more and less than 20 is denoted as A) | A (a compound having 10 or more and less than 20 is denoted as A) |
